Source: US20230365546A1, “5-SUBSTITUTED INDOLE 3-AMIDE DERIVATIVES, PREPARATION METHOD AND USE THEREOF” (ORIGIANT PHARMACEUTICAL CO., LTD, priority 2020, published 2023)

Columns and labels:
Test in all cases: Kinase Profiler 10 μM panel
PKA(h) = PKA(h) (Homo sapiens (Human), UniProt P17612)
Description: (§1) In vitro kinase assays were conducted using Kinase Profiler services provided by Eurofins. The experimental method was as follows: the small molecule compound to be tested (0.001-10 μM), the protein kinase to be tested were incubated with a buffer containing substrate, 10 mM magnesium acetate, and [γ-^33P-ATP], the reaction was started by adding Mg\TPmix, after incubation for a period of time at room temperature, a 3% phosphate solution was added to the buffer to stop the reaction. Subsequently, 10 μL of the reaction mixture was quantitatively pipetted onto P30 filter paper, which was washed three times with 75 mM phosphate solution and then once with methanol. The P30 filter paper was air-dried and scintillation fluid was added for scintillation counting.

CaMKK1(h) = CaMKK1(h) (Homo sapiens (Human), UniProt Q8N5S9)
Description: as §1

NEK11(h) = NEK11(h) (Homo sapiens (Human), UniProt Q8NG66)
Description: as §1

MAP4K4(h) = MAP4K4(h) (Homo sapiens (Human), UniProt O95819)
Description: as §1

SIK2(h) = SIK2(h) (Homo sapiens (Human), UniProt Q9H0K1)
Description: as §1

MYLK2(h) = MYLK2(h) (Homo sapiens (Human), UniProt Q9H1R3)
Description: as §1

TSSK1(h) = TSSK1(h) (Homo sapiens (Human), UniProt Q9BXA7)
Description: as §1

Lyn(h) = Lyn(h) (Homo sapiens (Human), UniProt P07948)
Description: as §1

PKBβ(h) = PKBβ(h) (Homo sapiens (Human), UniProt P31751)
Description: as §1

Rse(h) = Rse(h) (Homo sapiens (Human), UniProt Q06418)
Description: as §1

Plk4(h) = Plk4(h) (Homo sapiens (Human), UniProt O00444)
Description: as §1

[1] = target: PI3 Kinase (p110a/p65a)(h) (Homo sapiens (Human), UniProt P42336)
Description: as §1

Ret(h) = Ret(h) (Homo sapiens (Human), UniProt P07949)
Description: as §1

B-Raf(V599E)(h) = B-Raf(V599E)(h) (Homo sapiens (Human), UniProt P15056, V600E)
Description: as §1

CDK18/cyclinY(h) = CDK18/cyclinY(h) (Homo sapiens (Human), UniProt Q07002)
Description: as §1

STK25(h) = STK25(h) (Homo sapiens (Human), UniProt O00506)
Description: as §1

A-Raf(h) = A-Raf(h) (Homo sapiens (Human), UniProt P10398)
Description: as §1

EGFR(T790M)(h) = EGFR(T790M)(h) (Homo sapiens (Human), UniProt P00533, T790M)
Description: as §1

Aurora-B(h) = Aurora-B(h) (Homo sapiens (Human), UniProt Q96GD4)
Description: as §1

MAK(h) = MAK(h) (Homo sapiens (Human), UniProt P20794)
Description: as §1

PKCα(h) = PKCα(h) (Homo sapiens (Human), UniProt P17252)
Description: as §1

EphA3(h) = EphA3(h) (Homo sapiens (Human), UniProt P29320)
Description: as §1

IRAK1(h) = IRAK1(h) (Homo sapiens (Human), UniProt P51617)
Description: as §1

[2] = target: PI3 Kinase (p110b/p85a)(m) (Mus musculus (Mouse), UniProt Q8BTI9)
Description: as §1

Flt1(h) = Flt1(h) (Homo sapiens (Human), UniProt P17948)
Description: as §1

CK1(y) = tested on: CK1(y)
Description: as §1

CK1γ1(h) = CK1γ1(h) (Homo sapiens (Human), UniProt Q9HCP0)
Description: as §1

Blk(m) = Blk(m) (Mus musculus (Mouse), UniProt P16277)
Description: as §1

CK1δ(h) = CK1δ(h) (Homo sapiens (Human), UniProt P48730)
Description: as §1

CK1γ3(h) = CK1γ3(h) (Homo sapiens (Human), UniProt Q9Y6M4)
Description: as §1

ErbB4(h) = ErbB4(h) (Homo sapiens (Human), UniProt Q15303)
Description: as §1

PAK1(h) = PAK1(h) (Homo sapiens (Human), UniProt Q13153)
Description: as §1

PEK(h) = PEK(h) (Homo sapiens (Human), UniProt Q9NZJ5)
Description: as §1

Syk(h) = Syk(h) (Homo sapiens (Human), UniProt P43405)
Description: as §1

Sequence of PEK(h) (Q9NZJ5 30-1116): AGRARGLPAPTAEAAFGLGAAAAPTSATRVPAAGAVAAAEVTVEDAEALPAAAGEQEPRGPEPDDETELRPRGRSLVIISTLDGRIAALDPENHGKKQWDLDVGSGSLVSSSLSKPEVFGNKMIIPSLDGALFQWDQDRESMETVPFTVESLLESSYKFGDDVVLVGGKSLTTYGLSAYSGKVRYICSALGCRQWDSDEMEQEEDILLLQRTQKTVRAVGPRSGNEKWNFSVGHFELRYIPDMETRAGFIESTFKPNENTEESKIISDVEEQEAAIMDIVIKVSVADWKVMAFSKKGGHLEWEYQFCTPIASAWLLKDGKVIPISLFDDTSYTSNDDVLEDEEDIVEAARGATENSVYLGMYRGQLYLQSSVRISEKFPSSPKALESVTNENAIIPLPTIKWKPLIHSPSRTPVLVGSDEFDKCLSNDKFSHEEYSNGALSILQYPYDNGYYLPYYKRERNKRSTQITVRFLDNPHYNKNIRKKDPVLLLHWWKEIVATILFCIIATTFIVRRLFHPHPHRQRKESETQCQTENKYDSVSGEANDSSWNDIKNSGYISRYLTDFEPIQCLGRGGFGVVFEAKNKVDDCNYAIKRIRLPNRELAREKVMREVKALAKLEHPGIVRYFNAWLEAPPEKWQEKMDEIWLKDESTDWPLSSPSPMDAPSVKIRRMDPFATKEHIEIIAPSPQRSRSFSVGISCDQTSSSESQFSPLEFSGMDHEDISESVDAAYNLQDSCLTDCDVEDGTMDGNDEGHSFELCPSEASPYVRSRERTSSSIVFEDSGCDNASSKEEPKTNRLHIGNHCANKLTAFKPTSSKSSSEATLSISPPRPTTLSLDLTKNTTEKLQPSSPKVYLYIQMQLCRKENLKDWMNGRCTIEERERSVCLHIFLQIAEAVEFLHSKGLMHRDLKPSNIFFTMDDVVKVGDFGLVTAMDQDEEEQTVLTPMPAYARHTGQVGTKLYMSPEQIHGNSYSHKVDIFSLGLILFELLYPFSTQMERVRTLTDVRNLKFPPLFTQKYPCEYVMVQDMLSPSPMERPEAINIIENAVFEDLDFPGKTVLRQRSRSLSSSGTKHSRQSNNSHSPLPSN
Sequence of EphA3(h) (P29320 21-983): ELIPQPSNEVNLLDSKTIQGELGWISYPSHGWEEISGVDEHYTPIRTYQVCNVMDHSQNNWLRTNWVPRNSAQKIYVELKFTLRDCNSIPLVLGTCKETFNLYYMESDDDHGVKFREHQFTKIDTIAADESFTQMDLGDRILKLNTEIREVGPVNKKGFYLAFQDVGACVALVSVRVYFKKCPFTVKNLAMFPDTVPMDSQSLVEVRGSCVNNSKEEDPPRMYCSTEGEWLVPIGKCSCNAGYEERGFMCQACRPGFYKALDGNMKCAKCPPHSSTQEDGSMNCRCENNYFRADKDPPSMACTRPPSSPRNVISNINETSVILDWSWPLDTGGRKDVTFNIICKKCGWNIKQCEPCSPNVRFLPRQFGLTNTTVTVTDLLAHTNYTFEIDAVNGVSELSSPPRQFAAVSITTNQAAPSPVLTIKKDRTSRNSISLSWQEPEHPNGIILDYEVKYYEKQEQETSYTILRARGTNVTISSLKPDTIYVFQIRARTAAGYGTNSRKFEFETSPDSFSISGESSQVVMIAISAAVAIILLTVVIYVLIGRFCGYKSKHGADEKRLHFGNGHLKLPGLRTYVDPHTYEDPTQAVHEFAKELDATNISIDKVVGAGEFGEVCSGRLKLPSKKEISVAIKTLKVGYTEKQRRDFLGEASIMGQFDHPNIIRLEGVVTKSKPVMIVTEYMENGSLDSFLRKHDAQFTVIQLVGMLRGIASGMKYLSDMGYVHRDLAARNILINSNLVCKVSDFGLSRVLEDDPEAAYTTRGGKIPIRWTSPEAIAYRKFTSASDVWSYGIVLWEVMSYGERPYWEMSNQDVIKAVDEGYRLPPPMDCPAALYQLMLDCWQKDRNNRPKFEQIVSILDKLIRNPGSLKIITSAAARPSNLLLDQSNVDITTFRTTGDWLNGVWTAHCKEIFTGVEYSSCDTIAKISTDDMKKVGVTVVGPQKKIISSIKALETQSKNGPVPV
Sequence of EGFR(T790M)(h) (P00533 25-1210 T790M): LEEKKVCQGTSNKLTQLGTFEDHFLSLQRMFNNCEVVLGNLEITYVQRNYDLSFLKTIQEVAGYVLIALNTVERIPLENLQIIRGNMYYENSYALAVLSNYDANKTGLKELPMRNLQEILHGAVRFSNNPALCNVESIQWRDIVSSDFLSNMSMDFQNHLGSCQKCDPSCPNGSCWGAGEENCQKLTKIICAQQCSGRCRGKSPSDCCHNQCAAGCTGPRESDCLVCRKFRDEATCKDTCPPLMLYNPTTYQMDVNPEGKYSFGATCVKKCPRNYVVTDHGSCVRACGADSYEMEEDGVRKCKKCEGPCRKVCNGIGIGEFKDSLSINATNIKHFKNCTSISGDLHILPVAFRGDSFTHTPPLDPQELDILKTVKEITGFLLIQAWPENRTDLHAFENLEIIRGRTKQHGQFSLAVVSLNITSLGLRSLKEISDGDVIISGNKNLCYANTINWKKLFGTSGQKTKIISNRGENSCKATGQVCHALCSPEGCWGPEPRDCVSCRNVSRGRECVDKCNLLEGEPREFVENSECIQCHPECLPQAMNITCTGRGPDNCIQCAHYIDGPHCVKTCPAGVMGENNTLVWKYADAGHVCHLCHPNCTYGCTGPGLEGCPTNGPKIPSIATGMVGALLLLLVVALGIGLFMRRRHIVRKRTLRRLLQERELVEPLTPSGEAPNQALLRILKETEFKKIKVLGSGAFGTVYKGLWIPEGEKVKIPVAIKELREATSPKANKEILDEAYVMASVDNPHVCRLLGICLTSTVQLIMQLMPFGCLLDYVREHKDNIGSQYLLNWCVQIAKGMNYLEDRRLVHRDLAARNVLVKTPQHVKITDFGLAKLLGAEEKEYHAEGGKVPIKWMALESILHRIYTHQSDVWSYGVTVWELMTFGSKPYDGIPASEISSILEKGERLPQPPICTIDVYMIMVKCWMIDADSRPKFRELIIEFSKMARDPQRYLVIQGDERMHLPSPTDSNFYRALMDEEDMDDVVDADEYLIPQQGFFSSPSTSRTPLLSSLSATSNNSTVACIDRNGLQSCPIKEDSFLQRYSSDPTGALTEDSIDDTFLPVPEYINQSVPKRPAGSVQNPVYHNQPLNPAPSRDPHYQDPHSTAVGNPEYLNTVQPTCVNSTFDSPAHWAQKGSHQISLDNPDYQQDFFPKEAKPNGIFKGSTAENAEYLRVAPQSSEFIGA
Sequence of CK1δ(h) (P48730 whole entry): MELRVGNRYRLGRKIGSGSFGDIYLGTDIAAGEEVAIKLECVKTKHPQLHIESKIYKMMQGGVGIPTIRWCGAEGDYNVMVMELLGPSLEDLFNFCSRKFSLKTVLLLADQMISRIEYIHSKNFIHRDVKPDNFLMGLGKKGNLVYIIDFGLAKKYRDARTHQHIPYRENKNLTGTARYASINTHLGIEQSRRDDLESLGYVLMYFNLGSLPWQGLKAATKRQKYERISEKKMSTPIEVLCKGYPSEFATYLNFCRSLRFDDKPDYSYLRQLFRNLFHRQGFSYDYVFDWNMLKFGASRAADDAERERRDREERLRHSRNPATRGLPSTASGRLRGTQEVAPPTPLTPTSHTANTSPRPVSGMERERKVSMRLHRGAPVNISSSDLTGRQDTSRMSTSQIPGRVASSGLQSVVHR
Sequence of CaMKK1(h) (Q8N5S9 whole entry): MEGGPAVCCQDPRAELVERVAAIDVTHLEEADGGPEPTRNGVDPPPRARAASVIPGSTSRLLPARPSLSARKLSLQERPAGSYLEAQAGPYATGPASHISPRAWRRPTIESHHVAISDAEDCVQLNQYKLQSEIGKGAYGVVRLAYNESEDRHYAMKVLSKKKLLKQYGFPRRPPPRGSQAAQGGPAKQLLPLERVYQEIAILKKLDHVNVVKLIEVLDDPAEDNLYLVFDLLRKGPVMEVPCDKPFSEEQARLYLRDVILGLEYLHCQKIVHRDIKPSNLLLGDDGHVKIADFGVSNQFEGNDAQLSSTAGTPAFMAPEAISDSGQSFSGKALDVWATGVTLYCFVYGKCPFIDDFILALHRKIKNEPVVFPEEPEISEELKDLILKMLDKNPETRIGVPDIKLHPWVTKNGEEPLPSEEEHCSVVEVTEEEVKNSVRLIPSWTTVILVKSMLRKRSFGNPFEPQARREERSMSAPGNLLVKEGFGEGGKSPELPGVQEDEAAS
Sequence of Rse(h) (Q06418 41-890): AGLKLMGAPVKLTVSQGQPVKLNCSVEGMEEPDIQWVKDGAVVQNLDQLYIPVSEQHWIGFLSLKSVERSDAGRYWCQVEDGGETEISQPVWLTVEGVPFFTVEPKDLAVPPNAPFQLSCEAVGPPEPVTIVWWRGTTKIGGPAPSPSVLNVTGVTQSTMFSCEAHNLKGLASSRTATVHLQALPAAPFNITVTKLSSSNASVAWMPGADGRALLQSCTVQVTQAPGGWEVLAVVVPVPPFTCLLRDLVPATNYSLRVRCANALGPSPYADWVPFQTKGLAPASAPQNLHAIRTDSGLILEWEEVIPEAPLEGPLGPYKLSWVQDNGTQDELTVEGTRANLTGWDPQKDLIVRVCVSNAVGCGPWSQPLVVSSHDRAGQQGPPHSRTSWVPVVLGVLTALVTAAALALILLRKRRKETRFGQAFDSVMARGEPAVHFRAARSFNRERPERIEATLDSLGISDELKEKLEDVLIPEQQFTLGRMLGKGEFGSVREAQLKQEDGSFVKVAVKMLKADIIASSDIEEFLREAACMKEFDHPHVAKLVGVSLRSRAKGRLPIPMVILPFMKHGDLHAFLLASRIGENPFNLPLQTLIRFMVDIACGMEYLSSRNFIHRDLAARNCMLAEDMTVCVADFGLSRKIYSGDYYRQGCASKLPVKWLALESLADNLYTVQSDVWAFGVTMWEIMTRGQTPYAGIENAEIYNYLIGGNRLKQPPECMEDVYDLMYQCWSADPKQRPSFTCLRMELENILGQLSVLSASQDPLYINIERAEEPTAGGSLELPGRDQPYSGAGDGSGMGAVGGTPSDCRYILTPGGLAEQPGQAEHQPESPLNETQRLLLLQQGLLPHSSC

`C[C@H](NC(=O)c1c[nH]c2ccc(-c3ccc4nc(NC(=O)C5CC5)sc4c3)cc12)c1cccc(F)c1` [Compound 34, (S)-5-(2-(cyclopropanecarboxamido)benzo[d]thiazol-6-yl)-N-(1-(3-fluorophenyl)ethyl)-1H-indole-3-carboxamide] gave an Inhibition ratio (PKA(h)) of −12%, an Inhibition ratio (CaMKK1(h)) of 74% and an Inhibition ratio (NEK11(h)) of 35%. It also gave an Inhibition ratio (MAP4K4(h)) of 98%, an Inhibition ratio (SIK2(h)) of 39% and an Inhibition ratio (MYLK2(h)) of 55%. For the same compound, the Inhibition ratio (TSSK1(h)) was 12%, the Inhibition ratio (Lyn(h)) was 52% and the Inhibition ratio (PKBβ(h)) was 12%. The Inhibition ratio (Rse(h)) was 69%, the Inhibition ratio (Plk4(h)) was 14% and the Inhibition ratio [1] was 55%. It also gave an Inhibition ratio (Ret(h)) of 96%, an Inhibition ratio (B-Raf(V599E)(h)) of 14% and an Inhibition ratio (CDK18/cyclinY(h)) of 7%. The Inhibition ratio (STK25(h)) was 2%, the Inhibition ratio (A-Raf(h)) was −1% and the Inhibition ratio (EGFR(T790M)(h)) was 40%. It also gave an Inhibition ratio (Aurora-B(h)) of 21%, an Inhibition ratio (MAK(h)) of 2% and an Inhibition ratio (PKCα(h)) of 6%. The Inhibition ratio (EphA3(h)) was −8%, the Inhibition ratio (IRAK1(h)) was 32% and the Inhibition ratio [2] was 15%. It also gave an Inhibition ratio (Flt1(h)) of 100%, an Inhibition ratio (CK1(y)) of 25% and an Inhibition ratio (CK1γ1(h)) of 5%. For the same compound, the Inhibition ratio (Blk(m)) was 65%, the Inhibition ratio (CK1δ(h)) was 33% and the Inhibition ratio (CK1γ3(h)) was −15%. It also gave an Inhibition ratio (ErbB4(h)) of 22%, an Inhibition ratio (PAK1(h)) of 4% and an Inhibition ratio (PEK(h)) of 1%. The Inhibition ratio (Syk(h)) was 98%.

With `C[C@H](NC(=O)c1cn(C)c2ccc(-c3ccn4nc(NC(=O)C5CC5)nc4c3)cc12)c1cccc(F)c1` [Compound 94, (S)-5-(2-(cyclopropanecarboxamido)-[1,2,4]triazolo[1,5-a]pyridin-7-yl)-N-(1-(3-fluorophenyl)ethyl)-1-methyl-1H-indole-3-carboxamide] the Inhibition ratio/% (PKA(h)) was 55%, the Inhibition ratio/% (CaMKK1(h)) was 35% and the Inhibition ratio/% (NEK11(h)) was 44%. The Inhibition ratio/% (MAP4K4(h)) was −3%, the Inhibition ratio/% (SIK2(h)) was −4% and the Inhibition ratio/% (MYLK2(h)) was −8%. It also gave an Inhibition ratio/% (TSSK1(h)) of −8%, an Inhibition ratio/% (Lyn(h)) of 55% and an Inhibition ratio/% (PKBβ(h)) of −8%. The Inhibition ratio/% (Rse(h)) was 53%, the Inhibition ratio/% (Plk4(h)) was 15% and the Inhibition ratio/% [1] was 4%. It also gave an Inhibition ratio/% (Ret(h)) of 50%, an Inhibition ratio/% (B-Raf(V599E)(h)) of −10% and an Inhibition ratio/% (CDK18/cyclinY(h)) of 74%. The Inhibition ratio/% (STK25(h)) was 26%, the Inhibition ratio/% (A-Raf(h)) was 10% and the Inhibition ratio/% (EGFR(T790M)(h)) was −10%. The Inhibition ratio/% (Aurora-B(h)) was 25%, the Inhibition ratio/% (MAK(h)) was 45% and the Inhibition ratio/% (PKCα(h)) was 16%. It also gave an Inhibition ratio/% (EphA3(h)) of 6%, an Inhibition ratio/% (IRAK1(h)) of 23% and an Inhibition ratio/% [2] of 10%. The Inhibition ratio/% (Flt1(h)) was 42%, the Inhibition ratio/% (CK1(y)) was 30% and the Inhibition ratio/% (CK1γ1(h)) was 19%. It also gave an Inhibition ratio/% (Blk(m)) of 77%, an Inhibition ratio/% (CK1δ(h)) of −12% and an Inhibition ratio/% (CK1γ3(h)) of −10%. For the same compound, the Inhibition ratio/% (ErbB4(h)) was 63%, the Inhibition ratio/% (PAK1(h)) was 18% and the Inhibition ratio/% (PEK(h)) was 36%. For the same compound, the Inhibition ratio/% (Syk(h)) was 69%.
